In one experiment the target is Bovine Thrombin. The experiment can be described thus: Inhibition of thrombin amidase activity (chromogenic substrate), Kass. As to conditions: equilibrium association constant, mean over a range of concentrations; substrate N-benzoyl-Phe-Val-Arg-p-nitroanilide. The experiment is classed as biochemical. The protocol:
(§1) The assay is carried out by mixing 50 μL buffer (0.03M Tris, 0.15M NaCl ,pH 7.4) with 25 μL of bovine thrombin or human thrombin solution (0.21 mg/mL of thrombostat bovine thrombin, Parke-Davis, or purified human thrombin, Enzyme Research Laboratories, South Bend, Ind., at about 8 NIH units/mL, in the same buffer) and 25 μL of test compound in a solvent (in 50% aqueous methanol, v:v). The 150 μL of an aqueous solution of the chromogenic substrate (at 0.25 mg/mL) are added and the rates of hydrolysis of the substrate are measured by monitoring the reactions at 405 nm for the release of p-nitroaniline. Standard curves are constructed by plotting free thrombin concentration against hydrolysis rate. The hydrolysis rates observed with test compounds are then converted to "free thrombin" values in the respective assays by use of the standard curves. The bound thrombin (bound to test compound) is calculated by subtracting the amount of free thrombin observed in each assay from the known initial amount of thrombin used in the assay. The amount of free inhibitor in each assay is calculated by subtracting the number of moles of bound thrombin from the number of moles of added inhibitor (test compound). […]
Kass is calculated for a range of concentrations of test compounds and the mean value is reported in units of liter per mole.

The target in the next experiment is Trypsin. The experiment in a line: Serine protease selectivity assay (chromogenic substrate), Kass, trypsin. Type of experiment: biochemical, bovine. To be noted: equilibrium association constant; substrate N-Benzoyl-Phe-Val-Arg-p-nitroanilide. The protocol:
[The procedure below names another target; the source says it served here with some conditions changed.] as §1
(§2) Kass is calculated for a range of concentrations of test compounds and the mean value is reported in units of liter per mole. […]

A further experiment deals with Plasmin. The experiment can be described thus: Serine protease selectivity assay (chromogenic substrate), Kass, plasmin. Type of experiment: biochemical, human. As to conditions: equilibrium association constant; substrate H-D-Val-Leu-Lys-p-nitroanilide. The protocol:
[The procedure below names another target; the source says it served here with some conditions changed.] as §1, §2

The next experiment deals with factor Xa. The experiment in a line: Serine protease selectivity assay (chromogenic substrate), Kass, factor Xa. To be noted: equilibrium association constant; substrate N-Benzoyl-Ile-Glu-Gly-Arg-p-nitroanilide. The experiment is classed as biochemical, human. The protocol: [The procedure below names another target; the source says it served here with some conditions changed.] as §1, §2

In another experiment the test system is t-PA. The experiment can be described thus: Serine protease selectivity assay (chromogenic substrate), Kass, t-PA. Type of experiment: biochemical. As to conditions: equilibrium association constant; substrate H-D-Ile-Pro-Arg-p-nitroanilide. The protocol:
[The procedure below names another target; the source says it served here with some conditions changed.] as §1, §2

One may read the Kd as the free concentration of one partner at which half of the binding sites on the other are occupied at equilibrium, for simple one-to-one binding. A lower Kd goes with higher affinity.

On to `C[C@@](C=O)(CCCNC(=N)N)NC(=O)[C@@H]1CCCN1C(=O)[C@@H]1NCCc2ccccc21` [Example 2, D-1-(1,2,3,4-tetrahydroisoquinolinylcarboxyl)-L-prolinyl-L -α-methylarginine aldehyde], for which the equilibrium dissociation constant (Kd) at Bovine Thrombin was 4.55 µM; at Trypsin, 71.4 µM; on Plasmin it was 1250 µM; at factor Xa, 1000 µM. Further, the “Kass t-PA” value with t-PA was 0 × 10^6 (L/mole).
Taken in the same sequence, the figures for `CN[C@H](Cc1ccccc1)C(=O)N1CCC[C@H]1C(=O)N[C@](C)(C=O)CCCNC(=N)N` [Example 1, D-N-methylphenylalanyl-L-prolinyl-L-α-methylarginine aldehyde] were 0.909 µM, 250 µM, 2000 µM, 3330 µM and 0 × 10^6 (L/mole).

Source of the values: patent publication US5439888A, “Antithrombotic agents” (Eli Lilly and Company, priority 1994, dated 1995).
